Assay results: patent US7063946B2, “Methods, reagents, kits and apparatus for protein function analysis” (Meso Scale Technologies, LLC., priority 2001, dated 2006)
Where a SMILES comes first, the peptide text is derived from it.

Assays:
[1] = test system: tyrosine kinases reported to be the target of each inhibitor; settings: read-out: reported IC50 concentration (1× concentration); for the kinase reported to be the target of the inhibitor; cited from earlier work
EphB4 = biological target: T1, EphB4 (Mus musculus, UniProt P54761); assay: Kinase inhibitor profiling, autophosphorylation; assay type: biochemical
T1 construct: specificity data for proteins generated from a library of eighteen full-length clones; host or cells: rabbit reticulocyte lysate, TnT coupled in vitro transcription/translation (cell-free)
T1 sequence (P54761 16-987): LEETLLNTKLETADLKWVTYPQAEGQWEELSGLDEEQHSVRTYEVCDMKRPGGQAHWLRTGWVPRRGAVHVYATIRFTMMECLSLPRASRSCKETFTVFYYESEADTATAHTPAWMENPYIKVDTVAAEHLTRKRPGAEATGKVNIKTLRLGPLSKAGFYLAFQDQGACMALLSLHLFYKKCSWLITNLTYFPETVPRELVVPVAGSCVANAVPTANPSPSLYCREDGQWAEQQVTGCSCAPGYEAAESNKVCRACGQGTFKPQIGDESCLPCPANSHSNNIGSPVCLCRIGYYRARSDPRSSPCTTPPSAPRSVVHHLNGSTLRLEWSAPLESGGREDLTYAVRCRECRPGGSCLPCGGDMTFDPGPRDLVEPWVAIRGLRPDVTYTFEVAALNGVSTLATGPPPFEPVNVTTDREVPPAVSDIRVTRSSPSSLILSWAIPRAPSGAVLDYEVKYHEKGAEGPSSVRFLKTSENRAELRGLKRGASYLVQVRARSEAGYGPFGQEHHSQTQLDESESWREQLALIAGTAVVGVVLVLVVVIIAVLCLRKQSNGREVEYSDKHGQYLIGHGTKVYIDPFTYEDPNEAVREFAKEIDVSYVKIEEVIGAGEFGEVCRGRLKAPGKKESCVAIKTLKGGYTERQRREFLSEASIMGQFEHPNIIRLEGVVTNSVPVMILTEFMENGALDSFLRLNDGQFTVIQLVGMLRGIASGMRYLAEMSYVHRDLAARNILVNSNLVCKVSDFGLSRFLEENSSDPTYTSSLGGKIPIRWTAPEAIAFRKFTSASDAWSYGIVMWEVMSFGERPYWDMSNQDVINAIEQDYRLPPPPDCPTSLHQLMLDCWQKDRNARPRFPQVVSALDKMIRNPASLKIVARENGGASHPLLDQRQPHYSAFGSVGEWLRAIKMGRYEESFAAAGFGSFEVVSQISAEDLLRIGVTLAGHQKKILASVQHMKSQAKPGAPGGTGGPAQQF
Protocol: Proteins were produced from DNA plasmids of Mock Luciferase, Promega, tyrosine kinase clone Spleen Tyrosine kinase (SYK, IMAGE ID# 3870426) and Eph receptor-A7 (EphA7, IMAGE ID# 3991628) (Incyte Genomics, CA) and immobilized on streptavidin or avidin coated NPT-IPR plates as described in the Example 7. To promote autophosphorylation in these immobilized and purified proteins, Mn++ ions were added in a 50 μl reaction containing 5 mM MgCl2, 5 mM MnCl2, 100 μM ATP, 25 mM Tris-HCl buffer pH 7.4, 0.05 mM Na3VO4, 0.004% TritonX-100, 2 mM DTT and EDTA-free protease inhibitor (Roche Molecular Biochemicals). This mixture was incubated with shaking at room temperature overnight to allow autophosphorylation. Following this incubation, wells were washed 2 times with TT-buffer and 2 times with water. Following this step, 50 ng Sulfo-TAG labeled anti-phosphotyrosine in buffer containing 25 mM Tris-HCl buffer pH 7.4, 5 mM MgCl2, 0.05 mM Na3VO4, 0.004% TritonX-100, 2 mM DTT and 0.05% IgG in a final volume of 50 μl was added followed by incubation at room temperature for 45 min. The unbound reagents were removed by one time washing with water, and the TAG label was detected in presence of 150 μl IPR assay buffer (0.4 mM Gly—Gly buffer, pH 7.8, 1 mM EDTA, 0.1 M TPA). The ECL signals were measured using an imaging plate reader.
Proteins were produced using 100 ng of plasmid DNA Mock (Luciferase, Promega) or tyrosine kinases (Fert2 IMAGE ID # 4485050, FGFR1 IMAGE ID # 4037899, Fgfr2 IMAGE ID # 2654352, Src IMAGE ID # 3156400, BMX IMAGE ID # 3919253, LCK IMAGE ID # 4191610, Epha7 IMAGE ID # 3991628, Ephb4 IMAGE ID # 4013934, Tek IMAGE ID # 3482498, HCK IMAGE ID # 4778819, BTK IMAGE ID # 4478463, CSK IMAGE ID # 4398416, SYK IMAGE ID # 3870426, FGR IMAGE ID # 4419973, PTK2B IMAGE ID # 4339456, FRK(IMAGE ID # 4515877, Kit IMAGE ID # 2644960, Fgfr-4 IMAGE ID # 4239139, NTRK3 IMAGE ID # 4181574, Kdr IMAGE ID # 4238984, Incyte Genomics, CA) and immobilized on SA or avidin coated NPT-IPR plates as described in previous examples. The unbound components of the translation reaction (including any endogenous kinases) were removed by 3 washes with TT-buffer (25 mM Tris-HCl buffer pH 7.4 and 0.004% Triton), two five minutes washes with high-salt wash buffer (25 mM Tris-HCl buffer pH 7.4, 0.004% Triton, 1M NaCl and 5 mM DTT) and 3 washes with TT-buffer. […] The mixture was incubated at room temperature for 10 mm before starting the kinase reaction by adding 25 μl of 200 μM ATP in buffer A. This mixture was incubated with intermittent shaking at room temperature for 2 hours to overnight to allow (a) phosphorylation of the pEY substrate and (b) autophosphorylation of the immobilized kinases. Autophosphorylation and phosphorylation of the pEY was measured as described in Examples 7 and 8.
The ECL signal in control wells produced by tyrosine kinases was compared to the wells containing inhibitor compounds. The signal produced from Mock was negligible.

[2] = test system: N-end rule pathway ubiquitylation in reticulocyte lysate; assay: ECL ubiquitylation assay using Sulfo-TAG-labeled streptavidin and IPR plate coated with FK2 antibody; assay type: biochemical, rabbit; settings: RGS4 plasmid; for fold reduction of the RGS4 ECL signal in the presence of dipeptide inhibitor: 1 mM dipeptide; for IPR readings, Experiment 1 / IPR readings, Experiment 2: 1 mM dipeptide inhibitor with 50 μM bestatin
Protocol: Binding Buffer 2 (BB2) refers to 25 mM Tris-HCl buffer pH 7.4 containing 100 mM NaCl, 0.05 mM Na3VO4, 0.004% TritonX-100, 2 mM DTT and protease inhibitors (protease inhibitor cocktail, EDTA free, Roche Applied Science). Proteins were produced by coupled transcription/translation using TnT reaction mixes (Promega Corp, WI). The TNT Quick coupled transcription-translation system (Promega) contains rabbit reticulocyte lysate pre-mixed with most of the reaction components necessary to carry out transcription and translation in vitro (TNT mix), including all the amino acids except methionine. Unless otherwise noted, biotin-labeled in vitro translated proteins were produced in reaction mixtures that contained 8–30 μg/ml of a selected plasmid encoding protein of interest, 5 μl of TNT T7 Quick reticulocyte lysate mix (Promega Corp, WI) or TnT SP6 Quick Coupled Transcription/Translation System (Promega Corp, WI), 20 μM methionine, 50 μM MG-132 (Calbiochem, proteasome inhibitor to inhibit degradation of ubiquitylated proteins by proteasome) and 20 μg/ml biotinylated Lys-tRNA (transcend tRNA, Promega). The reactions were allowed to proceed for 20–90 min at 30° C. The reactions were stopped by the addition of BB1 supplemented with 20 mM AMP-PNP (Sigma, a non-hydrolyzable ATP analog), 20 mM N-ethylmaleimide (Sigma, an irreversible inhibitor of deubiquitylating enzymes) or, alternatively, by the addition of BB2. BB1 was used in screens involving the ubiquitination pathway. BB2 was used for other assay formats. The produced proteins were used in the assays of interest with or without further purification.
Transcription-translation reaction mixtures were prepared as described in the Example 1 except that no labeled ubiquitin was added. Some reactions also contained 1 mM dipeptide inhibitor of the N-end rule pathway (either Arg-β-Ala, or Trp-Ala) together with 50 μM bestatin as indicated (Table 2). The reaction was allowed to proceed for 20 min at 30° C. Then 1 μl of the reaction was mixed with 50 μl of BB1 supplemented with 20 mM AMP-PNP, 20 mM N-ethylmaleimide, and 2 μg/ml Sulfo-TAG-labeled streptavidin in a well of an IPR plate coated with an anti-ubiquitin antibody (FK2 antibody, Affiniti). […] In a typical assay the presence of RGS4-encoding plasmid produced a 30–100 fold higher ECL signal compared to the empty vector (FIG. 2, Table 2). This signal was reduced 3–4 fold in the presence of Arg-β-Ala (a type 1 inhibitor of the N-end rule pathway), but not in the presence of Trp-Ala (a type 2 inhibitor of the N-end rule pathway) in agreement with the previous report that RGS4 is a type 1 N-end rule substrate in reticulocyte lysates (Davydov and Varshavsky, 2000, J. Biol. Chem., 275:22931–22941). In the same assay RGS4 produced 3–5 fold higher ECL signal compared to RGS4C2V, when the same amounts of the corresponding plasmids were added to the reaction mixtures (Table 2).

[3] = test system: N-end rule pathway ubiquitylation in reticulocyte lysates; assay: ECL ubiquitylation assay of EST clone proteins, FK2 antibody coated IPR plate; assay type: biochemical, rabbit
Protocol: The following EST clones in bacteria were obtained: IMAGE ID #, 3446518, 3446518, 3446518, 3914731 (RGS4), 3914731 (RGS4), 3914731 (RGS4) (Incyte, Palo Alto). Bacteria containing EST clones were grown in 2 ml LB with 50 μg/ml Amp, and DNA was isolated using QIAprep Spin Miniprep Kit (Qiagen). DNA yield was 5–20 μg.
Proteins were prepared from the EST clones in transcription-translation reaction mixtures (total volume 12.5 uL) as described in the Materials and Methods except for the addition of 1 μM Ub aldehyde (Calbiochem). Then 1 μl of the reaction product was mixed with 50 μl of BB1 supplemented with 20 mM AMP-PNP, 20 mM N-ethylmaleimide and 2 μg/ml Sulfo-TAG-labeled streptavidin in to each well of an IPR plate coated with FK2 antibody.
As previously reported, RGS4 is a substrate of the N-end rule-dependent ubiquitylation in reticulocyte lysates (Davydov and Varshavsky, 2000, J. Biol. Chem., 275:22931–22941). To determine if the protein produced from clone 3446518 was similarly ubiquitylated through the N-end rule pathway, the ECL ubiquitylation assay was performed in the presence of dipeptide inhibitors Arg-β-Ala (type 1 inhibitor of the N-end rule pathway), or Trp-Ala (type 2 inhibitor of the same pathway). As was shown on FIG. 2, the RGS4 signal was reduced 3–4 fold in the presence of Arg-β-Ala (a type 1 inhibitor of the N-end rule pathway), but not in the presence of Trp-Ala (a type 2 inhibitor of the N-end rule pathway) in agreement with the previous report that RGS4 is a type 1 N-end rule substrate in reticulocyte lysates (Davydov and Varshavsky, 2000, J. Biol. Chem., 275:22931–22941). In contrast, the dipeptides had little effect on the assay signal from clone 3446518 (FIG. 2). Thus, a different pathway of the ubiquitin system mediates ubiquitylation of the protein produced from clone 3446518.

[4] = clone 3446518 in the presence of dipeptide inhibitor
[5] = clone 3914731 (RGS4) in the presence of dipeptide inhibitor

SMILES | IC50 [1] | Inhibition specificity towards Autophosphorylation at 10X IC50, Ephb4 (EphB4) | fold reduction of the RGS4 ECL signal in the presence of dipeptide inhibitor [2] | IPR readings, Experiment 1 [2] | IPR readings, Experiment 2 [2] | fold reduction of the RGS4 signal in the presence of dipeptide inhibitor ([3]; RGS4) | ECL readings, Experiment 1 [3, 4] | ECL readings, Experiment 2 [3, 4] | ECL readings, Experiment 3 [3, 4] | ECL readings, Experiment 1 [3, 5] | ECL readings, Experiment 2 [3, 5] | ECL readings, Experiment 3 [3, 5]
N#C/C(=C\c1ccc(O)c(O)c1)C(=O)c1ccc(O)c(O)c1 [AG-538] | 60 nM | L (low inhibition (“L”=between 50–75% of the activity remaining)) | – | – | – | – | – | – | – | – | – | –
N=C(N)NCCC[C@H](N)C(=O)NCCC(=O)O [Arg-β-Ala] | – | – | 3–4 fold | 6224 | 6184 | 3–4 fold | 10484 | 10829 | 9665 | 15074 | 15016 | 14555
C[C@H](NC(=O)[C@@H](N)Cc1c[nH]c2ccccc12)C(=O)O [Trp-Ala] (H-Trp-Ala-OH) | – | – | not | 19196 | 19268 | – | 11249 | 11550 | 11464 | 41229 | 40401 | 38552
